Experimental data from PMC5394417, “Investigating the molecular mechanism of positive and negative allosteric modulators in the calcium-sensing receptor dimer” (Scientific Reports, 2017).

Biological target: T1, HA-S147A/S170A CaSR mutant (Rattus norvegicus, UniProt P48442, S147A/S170A)
T1 construct: mGluR5 signal peptide (N); expressed in transfected cells; host or cells: HEK293T
T1 sequence (P48442 20-1079 S147A/S170A): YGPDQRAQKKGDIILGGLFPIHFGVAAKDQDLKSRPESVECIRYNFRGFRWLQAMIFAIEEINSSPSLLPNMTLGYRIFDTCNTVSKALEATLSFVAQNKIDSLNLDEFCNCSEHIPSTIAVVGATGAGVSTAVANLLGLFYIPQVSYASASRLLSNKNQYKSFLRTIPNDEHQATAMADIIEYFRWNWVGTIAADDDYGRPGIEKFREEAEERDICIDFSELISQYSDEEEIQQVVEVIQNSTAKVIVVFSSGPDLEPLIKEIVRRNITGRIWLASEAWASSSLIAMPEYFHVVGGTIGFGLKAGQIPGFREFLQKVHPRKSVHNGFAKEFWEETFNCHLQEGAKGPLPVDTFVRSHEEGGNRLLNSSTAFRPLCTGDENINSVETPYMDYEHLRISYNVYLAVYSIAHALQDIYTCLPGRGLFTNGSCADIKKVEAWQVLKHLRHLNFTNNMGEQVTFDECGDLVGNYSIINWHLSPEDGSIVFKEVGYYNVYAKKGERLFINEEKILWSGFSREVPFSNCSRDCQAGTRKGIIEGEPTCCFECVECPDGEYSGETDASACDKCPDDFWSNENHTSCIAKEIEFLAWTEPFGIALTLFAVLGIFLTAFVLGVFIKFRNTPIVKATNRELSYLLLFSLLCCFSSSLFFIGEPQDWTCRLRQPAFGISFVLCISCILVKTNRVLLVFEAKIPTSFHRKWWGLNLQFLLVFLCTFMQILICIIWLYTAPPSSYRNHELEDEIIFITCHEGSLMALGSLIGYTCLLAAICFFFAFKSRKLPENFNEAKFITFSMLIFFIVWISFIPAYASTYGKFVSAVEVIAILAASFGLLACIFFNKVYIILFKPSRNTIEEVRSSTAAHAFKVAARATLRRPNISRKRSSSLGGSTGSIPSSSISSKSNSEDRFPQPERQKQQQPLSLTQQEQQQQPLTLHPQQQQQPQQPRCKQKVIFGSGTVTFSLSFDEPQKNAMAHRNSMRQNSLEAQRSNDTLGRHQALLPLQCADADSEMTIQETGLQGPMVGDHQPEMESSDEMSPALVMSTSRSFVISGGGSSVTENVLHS
Assay: IP-One assay, HEK293T transiently transfected
Assay type: cell-based

EC50 (Ca^2+ alone): 9.04 mM
Hill coefficient ± S.E.M. (Ca^2+ alone): 3.00 ± 0.07
pEC50 ± S.E.M. (Ca^2+ alone): 2.04 ± 0.02
Max ± S.E.M. (normalized to maximum response of WT CaSR): 130 ± 28%
SMILES: [Ca+2] [Ca^2+]
